Assay results from patent publication US20230364070A1, “PYRROLO[3,2-C]PYRIDIN-4-ONE DERIVATIVES USEFUL IN THE TREATMENT OF CANCER” (Scorpion Therapeutics, Inc., priority 2020, published 2023).

What was measured:
Type in all cases: cell-based
[1] = molecular target: T1, Ba/F3 cells with EGFR exon 20 NPG Ins D770_N771 (Homo sapiens, UniProt P00533, INS770NPG); test: EGFR activity: Ba/F3 cell viability (CellTiter-Glo, 72 h), EGFR exon 20 NPG insertion; details: EGFR exon 20 NPG Ins D770_N771, cell viability, read-out: BaF3 NPG IC50
T1 construct: expressed in transfected cells; host or cells: Ba/F3 (murine pro-B cells), retroviral transduction, puromycin selection, IL3-independent pool

pEGFR in CUTO14 cells = molecular target: T2, pEGFR in CUTO14 cells (Homo sapiens, UniProt P00533, DUP767-769); test: Inhibitor activity on EGFR phosphorylation (pEGFR AlphaLISA, 2 h), CUTO14 cells
T2 construct: endogenous in cells; host or cells: CUTO14 cells
Protocol: CUTO14 cells were obtained from Dr. Robert C. Doebele at the University of Colorado.
Shake 350 rpm for 1 hr in the dark • 3.4 Prepare donor mix under low light conditions prior to use. Dispense 5 μL of donor mix to all the wells. Mix well on the shaker, seal and wrap in aluminum foil and incubate 1.5 hrs at room temperature in the dark • 3.5 Transfer 18.5 μL mixture to OptiPlate 384, and read using an Envision.

Ba/F3 cells with EGFR WT = molecular target: T3, Ba/F3 cells with EGFR WT (Homo sapiens, UniProt P00533); test: EGFR activity: Ba/F3 cell viability (CellTiter-Glo, 72 h), EGFR WT; details: read-out: BaF3 WT IC50
T3 construct: expressed in transfected cells; host or cells: Ba/F3 (murine pro-B cells), retroviral transduction, puromycin selection, maintained with EGF

[2] = molecular target: T4, Ba/F3 cells with EGFR exon 20 ASV Ins V769_D770 (Homo sapiens, UniProt P00533, INS769ASV); test: EGFR activity: Ba/F3 cell viability (CellTiter-Glo, 72 h), EGFR exon 20 ASV insertion; details: EGFR exon 20 ASV Ins V769_D770, cell viability, read-out: BaF3 ASV IC50
T4 construct: expressed in transfected cells; host or cells: Ba/F3 (murine pro-B cells), retroviral transduction, puromycin selection, IL3-independent pool
T4 sequence (P00533 with tags, fused parts or gaps INS769ASV): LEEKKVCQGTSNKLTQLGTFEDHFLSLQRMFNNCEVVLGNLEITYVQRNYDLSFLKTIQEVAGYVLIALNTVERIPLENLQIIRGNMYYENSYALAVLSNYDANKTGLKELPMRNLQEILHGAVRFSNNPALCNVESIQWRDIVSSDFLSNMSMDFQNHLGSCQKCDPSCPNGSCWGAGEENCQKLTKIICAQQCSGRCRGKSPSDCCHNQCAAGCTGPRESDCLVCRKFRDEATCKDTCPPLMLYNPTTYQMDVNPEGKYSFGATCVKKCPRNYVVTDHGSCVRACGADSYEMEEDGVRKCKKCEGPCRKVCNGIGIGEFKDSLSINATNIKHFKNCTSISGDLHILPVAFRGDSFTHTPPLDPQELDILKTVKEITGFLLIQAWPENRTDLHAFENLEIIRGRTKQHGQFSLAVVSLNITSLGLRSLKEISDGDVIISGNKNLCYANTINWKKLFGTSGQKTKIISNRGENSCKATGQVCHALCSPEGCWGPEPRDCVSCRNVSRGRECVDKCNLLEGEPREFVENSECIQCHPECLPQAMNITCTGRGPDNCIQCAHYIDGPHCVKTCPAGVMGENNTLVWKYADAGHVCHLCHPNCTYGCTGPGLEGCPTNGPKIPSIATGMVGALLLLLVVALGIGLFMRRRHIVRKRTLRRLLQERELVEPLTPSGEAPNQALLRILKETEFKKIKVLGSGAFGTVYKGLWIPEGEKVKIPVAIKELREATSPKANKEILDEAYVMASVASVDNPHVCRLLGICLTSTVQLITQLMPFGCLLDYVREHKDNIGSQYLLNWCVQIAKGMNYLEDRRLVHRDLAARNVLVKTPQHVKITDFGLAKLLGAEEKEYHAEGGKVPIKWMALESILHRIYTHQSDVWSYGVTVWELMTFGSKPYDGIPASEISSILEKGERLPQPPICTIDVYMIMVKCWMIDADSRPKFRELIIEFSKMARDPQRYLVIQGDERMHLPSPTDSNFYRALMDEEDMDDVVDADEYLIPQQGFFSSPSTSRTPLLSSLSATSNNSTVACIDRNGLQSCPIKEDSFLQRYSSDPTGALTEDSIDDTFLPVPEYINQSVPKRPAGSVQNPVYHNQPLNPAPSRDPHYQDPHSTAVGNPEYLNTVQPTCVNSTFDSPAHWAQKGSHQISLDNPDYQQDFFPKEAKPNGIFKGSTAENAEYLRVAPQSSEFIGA

T3 sequence (P00533 25-1210): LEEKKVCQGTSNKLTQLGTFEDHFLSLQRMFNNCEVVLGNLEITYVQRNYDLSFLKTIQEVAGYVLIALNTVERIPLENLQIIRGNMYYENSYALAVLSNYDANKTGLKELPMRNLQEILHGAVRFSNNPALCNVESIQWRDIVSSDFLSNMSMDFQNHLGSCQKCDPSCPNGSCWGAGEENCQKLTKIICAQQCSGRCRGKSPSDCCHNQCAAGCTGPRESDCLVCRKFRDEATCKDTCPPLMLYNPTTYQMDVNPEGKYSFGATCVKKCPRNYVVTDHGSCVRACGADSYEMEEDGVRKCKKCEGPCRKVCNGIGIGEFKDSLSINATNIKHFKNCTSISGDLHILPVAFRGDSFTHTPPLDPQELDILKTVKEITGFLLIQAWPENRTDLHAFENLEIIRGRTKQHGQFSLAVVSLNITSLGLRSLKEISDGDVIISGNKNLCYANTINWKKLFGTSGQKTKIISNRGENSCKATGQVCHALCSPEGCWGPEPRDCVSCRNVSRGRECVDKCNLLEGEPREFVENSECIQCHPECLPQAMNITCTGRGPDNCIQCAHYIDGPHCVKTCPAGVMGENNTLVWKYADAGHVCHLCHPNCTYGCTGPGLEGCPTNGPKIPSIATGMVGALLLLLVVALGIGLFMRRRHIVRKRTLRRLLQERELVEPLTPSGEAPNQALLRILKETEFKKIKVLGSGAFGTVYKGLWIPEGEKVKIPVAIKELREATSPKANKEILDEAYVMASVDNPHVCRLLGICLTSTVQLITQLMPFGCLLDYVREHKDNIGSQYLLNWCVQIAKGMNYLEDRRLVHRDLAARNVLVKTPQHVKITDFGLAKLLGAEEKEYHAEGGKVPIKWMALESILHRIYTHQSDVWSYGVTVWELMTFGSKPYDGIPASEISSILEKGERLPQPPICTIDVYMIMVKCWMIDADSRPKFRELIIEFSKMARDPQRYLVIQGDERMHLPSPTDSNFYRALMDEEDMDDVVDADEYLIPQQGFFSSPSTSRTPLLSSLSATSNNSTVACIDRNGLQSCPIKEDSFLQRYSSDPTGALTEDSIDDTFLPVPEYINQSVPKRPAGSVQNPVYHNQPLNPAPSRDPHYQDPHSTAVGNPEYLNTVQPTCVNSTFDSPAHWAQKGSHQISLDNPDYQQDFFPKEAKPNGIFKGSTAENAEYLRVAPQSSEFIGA
T1 sequence (P00533 with tags, fused parts or gaps INS770NPG): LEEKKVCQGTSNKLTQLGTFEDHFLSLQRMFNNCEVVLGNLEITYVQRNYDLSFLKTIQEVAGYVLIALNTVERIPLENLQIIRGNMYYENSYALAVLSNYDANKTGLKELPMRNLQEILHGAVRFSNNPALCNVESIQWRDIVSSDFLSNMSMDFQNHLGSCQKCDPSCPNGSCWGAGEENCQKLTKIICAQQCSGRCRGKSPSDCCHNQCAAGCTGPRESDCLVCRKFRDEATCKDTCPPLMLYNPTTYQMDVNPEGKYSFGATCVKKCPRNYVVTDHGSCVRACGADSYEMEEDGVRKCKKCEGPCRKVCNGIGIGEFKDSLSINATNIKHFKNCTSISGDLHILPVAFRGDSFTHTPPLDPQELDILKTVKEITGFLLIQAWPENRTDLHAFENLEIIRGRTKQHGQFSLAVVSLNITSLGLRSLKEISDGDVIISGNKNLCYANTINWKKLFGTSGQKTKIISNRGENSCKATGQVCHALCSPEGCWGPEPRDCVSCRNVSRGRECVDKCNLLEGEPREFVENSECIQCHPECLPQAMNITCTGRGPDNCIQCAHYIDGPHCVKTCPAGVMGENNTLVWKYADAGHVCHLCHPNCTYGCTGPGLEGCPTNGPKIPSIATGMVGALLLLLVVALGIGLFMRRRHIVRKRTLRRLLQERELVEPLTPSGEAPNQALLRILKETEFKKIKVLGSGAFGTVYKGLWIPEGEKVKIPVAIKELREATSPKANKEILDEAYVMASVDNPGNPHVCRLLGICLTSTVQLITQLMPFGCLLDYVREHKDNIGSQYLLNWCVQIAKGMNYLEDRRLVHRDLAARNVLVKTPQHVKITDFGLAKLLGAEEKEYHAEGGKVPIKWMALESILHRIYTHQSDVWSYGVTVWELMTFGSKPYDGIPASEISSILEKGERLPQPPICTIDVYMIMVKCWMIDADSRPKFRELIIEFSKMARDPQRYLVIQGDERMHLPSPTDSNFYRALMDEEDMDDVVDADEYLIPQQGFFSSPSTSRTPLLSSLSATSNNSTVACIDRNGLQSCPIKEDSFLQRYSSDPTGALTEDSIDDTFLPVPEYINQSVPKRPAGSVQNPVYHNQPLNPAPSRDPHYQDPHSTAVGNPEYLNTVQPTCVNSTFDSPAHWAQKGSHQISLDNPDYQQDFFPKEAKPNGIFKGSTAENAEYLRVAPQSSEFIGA
T2 sequence (P00533 with tags, fused parts or gaps DUP767-769): as the sequence (P00533 with tags, fused parts or gaps INS769ASV) above

IC50 (pEGFR in CUTO14 cells) [µM]	Compound	IC50 [1] [µM]	IC50 (Ba/F3 cells with EGFR WT) [µM]	IC50 [2] [µM]
< 0.1	C=CC(=O)N1CCOC[C@H]1COc1cnccc1-c1[nH]c2c(c1Nc1cccc(F)c1OC)C(=O)NCC2 [compound 190]	< 0.1	0.1 to 1	< 0.1
< 0.1	C=CC(=O)N1[C@H]2CC[C@H](C2)[C@@H]1C#Cc1cnccc1-c1[nH]c2c(c1Nc1cccc(Cl)c1OC)C(=O)NCC2 [compound 236, 3-[(3-chloro-2-methoxyphenyl)amino]-2-(3-{2-[(1S,3R,4R)-2-(prop-2-enoyl)-2-azabicyclo[2.2.1]heptan-3-yl]ethynyl}pyridin-4-yl)-1H,5H,6H,7H-pyrrolo[3,2-c]pyridin-4-one]	< 0.1	0.1 to 1	< 0.1
< 0.1	C=CC(=O)N1[C@H](C#Cc2cnccc2-c2[nH]c3c(c2Nc2cccc(Cl)c2OC)C(=O)NCC3)CC[C@@H]1C [compound 240, 3-[(3-chloro-2-methoxyphenyl)amino]-2-(3-{2-[(2S,5S)-5-methyl-1-(prop-2-enoyl)pyrrolidin-2-yl]ethynyl}pyridin-4-yl)-1H,5H,6H,7H-pyrrolo[3,2-c]pyridin-4-one]	< 0.1	< 0.1	< 0.1
< 0.1	C=CC(=O)N1[C@H]2CC[C@H](C2)[C@@H]1C#Cc1cnccc1-c1[nH]c2c(c1Nc1cccc(F)c1OC)C(=O)NCC2 [compound 252, 3-[(3-fluoro-2-methoxyphenyl)amino]-2-(3-{2-[(1S,3R,4R)-2-(prop-2-enoyl)-2-azabicyclo[2.2.1]heptan-3-yl]ethynyl}pyridin-4-yl)-1H,5H,6H,7H-pyrrolo[3,2-c]pyridin-4-one]	< 0.1	0.1 to 1	< 0.1
< 0.1	C=CC(=O)N1[C@H](C#Cc2cnccc2-c2[nH]c3c(c2Nc2cccc(F)c2OC)C(=O)NCC3)CC[C@@H]1C [compound 255, 3-[(3-fluoro-2-methoxyphenyl)amino]-2-(3-{2-[(2S,5S)-5-methyl-1-(prop-2-enoyl)pyrrolidin-2-yl]ethynyl}pyridin-4-yl)-1H,5H,6H,7H-pyrrolo[3,2-c]pyridin-4-one]	< 0.1	< 0.1	< 0.1
< 0.1	C=CC(=O)N1[C@H](C)CC[C@H]1C#Cc1cnccc1-c1[nH]c2c(c1Nc1cccc(F)c1OC)C(=O)NCC2 [compound 257]	< 0.1	< 0.1	< 0.1
< 0.1	C=CC(=O)NC1(C#Cc2cnccc2-c2[nH]c3c(c2Nc2cccc(Cl)c2OC)C(=O)NCC3)CCC1 [compound 261]	< 0.1	0.1 to 1	< 0.1
< 0.1	C=CC(=O)NC1(C#Cc2cnccc2-c2[nH]c3c(c2Nc2cccc(Cl)c2OC)C(=O)NCC3)COC1 [compound 264, N-{3-[2-(4-{3-[(3-chloro-2-methoxyphenyl)amino]-4-oxo-1H,5H,6H,7H-pyrrolo[3,2-c]pyridin-2-yl}pyridin-3-yl)ethynyl]oxetan-3-yl}prop-2-enamide]	< 0.1	0.1 to 1	< 0.1
< 0.1	C=CC(=O)N1CC(C)(C)C[C@@H]1COc1cnccc1-c1[nH]c2c(c1Nc1cccc(Cl)c1OC)C(=O)NCC2 [compound 265]	< 0.1	< 0.1	< 0.1
< 0.1	C=CC(=O)N1[C@H](COc2cnccc2-c2[nH]c3c(c2Nc2cccc(Cl)c2OC)C(=O)NCC3)C[C@H]1C [compound 270]	< 0.1	0.1 to 1	< 0.1
< 0.1	C=CC(=O)N1[C@@H](COc2cnccc2-c2[nH]c3c(c2Nc2cccc(Cl)c2OC)C(=O)NCC3)C[C@H]1C [compound 271]	< 0.1	< 0.1	< 0.1
< 0.1	C=CC(=O)N1[C@@H](COc2cnccc2-c2[nH]c3c(c2Nc2cccc(Cl)c2OC)C(=O)NCC3)C[C@@H]1C [compound 272]	< 0.1	< 0.1	< 0.1
< 0.1	C=CC(=O)N1[C@H](COc2cnccc2-c2[nH]c3c(c2Nc2cccc(Cl)c2OC)C(=O)NCC3)C[C@@H]1C [compound 273]	< 0.1	< 0.1	< 0.1
0.1 to 1	CC#CC(=O)N1CCOC[C@H]1COc1cnccc1-c1[nH]c2c(c1Nc1cccc(F)c1OC)C(=O)NCC2 [compound 292]	0.1 to 1	> 1	0.1 to 1
< 0.1	C=CC(=O)N1[C@@H](C#Cc2cnccc2-c2[nH]c3c(c2Nc2cccc(F)c2OC)C(=O)NCC3)C[C@@H]2C[C@@H]21 [compound 301]	< 0.1	0.1 to 1	< 0.1
< 0.1	COc1c(F)cccc1Nc1c(-c2ccncc2C#C[C@H]2CC(C)(C)CN2C(=O)/C=C/CN(C)C)[nH]c2c1C(=O)NCC2 [compound 344, 2-(3-{2-[(2R)-1-[(2E)-4-(dimethylamino)but-2-enoyl]-4,4-dimethylpyrrolidin-2-yl]ethynyl}pyridin-4-yl)-3-[(3-fluoro-2-methoxyphenyl)amino]-1H,5H,6H,7H-pyrrolo[3,2-c]pyridin-4-one]	–	–	–
< 0.1	COc1c(F)cccc1Nc1c(-c2ccncc2C#C[C@H]2C[C@@H]3C[C@@H]3N2C(=O)/C=C/CN(C)C)[nH]c2c1C(=O)NCC2 [compound 345, 2-(3-{2-[(1S,3R,5S)-2-[(2E)-4-(dimethylamino)but-2-enoyl]-2-azabicyclo[3.1.0]hexan-3-yl]ethynyl}pyridin-4-yl)-3-[(3-fluoro-2-methoxyphenyl)amino]-1H,5H,6H,7H-pyrrolo[3,2-c]pyridin-4-one]	–	–	–
< 0.1	CC#CC(=O)N1CC[C@@H]1COc1cnccc1-c1[nH]c2c(c1Nc1cccc(Cl)c1CC)C(=O)NCC2 [compound 348, 2-(3-{[(2R)-1-(but-2-ynoyl)azetidin-2-yl]methoxy}pyridin-4-yl)-3-[(3-chloro-2-ethylphenyl)amino]-1H,5H,6H,7H-pyrrolo[3,2-c]pyridin-4-one]	–	–	–
< 0.1	COc1c(Cl)cccc1Nc1c(-c2ccncc2C#C[C@@]2(C)CCCN2C(=O)/C=C/CN(C)C)[nH]c2c1C(=O)NCC2 [compound 362, 3-[(3-chloro-2-methoxyphenyl)amino]-2-(3-{2-[(2R)-1-[(2E)-4-(dimethylamino)but-2-enoyl]-2-methylpyrrolidin-2-yl]ethynyl}pyridin-4-yl)-1H,5H,6H,7H-pyrrolo[3,2-c]pyridin-4-one]	–	–	–
< 0.1	C=C(F)C(=O)N1CC[C@H]1COc1cnccc1-c1[nH]c2c(c1Nc1cccc(Cl)c1OC)C(=O)NCC2 [compound 363, 3-[(3-chloro-2-methoxyphenyl)amino]-2-(3-{[(2S)-1-(2-fluoroprop-2-enoyl)azetidin-2-yl]methoxy}pyridin-4-yl)-1H,5H,6H,7H-pyrrolo[3,2-c]pyridin-4-one]	–	–	–
< 0.1	C=CC(=O)N[C@@H](C)C#Cc1cnccc1-c1[nH]c2c(c1Nc1cccc(F)c1OC)C(=O)NCC2 [compound 375, N-[(2S)-4-(4-{3-[(3-fluoro-2-methoxyphenyl)amino]-4-oxo-1H,5H,6H,7H-pyrrolo[3,2-c]pyridin-2-yl}pyridin-3-yl)but-3-yn-2-yl]prop-2-enamide]	–	–	–
< 0.1	C=CC(=O)N[C@@H](C)C#Cc1cnccc1-c1[nH]c2c(c1Nc1cccc(Cl)c1OC)C(=O)NCC2 [compound 376, N-[(2S)-4-(4-{3-[(3-chloro-2-methoxyphenyl)amino]-4-oxo-1H,5H,6H,7H-pyrrolo[3,2-c]pyridin-2-yl}pyridin-3-yl)but-3-yn-2-yl]prop-2-enamide]	–	–	–
< 0.1	COc1c(Cl)cccc1Nc1c(-c2ccncc2C#C[C@H]2C[C@@H]3C[C@@H]3N2C(=O)/C=C/CN(C)C)[nH]c2c1C(=O)NCC2 [compound 466, 3-[(3-chloro-2-methoxyphenyl)amino]-2-(3-{2-[(1S,3R,5S)-2-[(2E)-4-(dimethylamino)but-2-enoyl]-2-azabicyclo[3.1.0]hexan-3-yl]ethynyl}pyridin-4-yl)-1H,5H,6H,7H-pyrrolo[3,2-c]pyridin-4-one]	–	–	–
< 0.1	C=CC(=O)N1CC(C)(C)[C@H]1COc1cnccc1-c1[nH]c2c(c1Nc1cccc(Cl)c1OC)C(=O)NCC2 [compound 512, 3-[(3-chloro-2-methoxyphenyl)amino]-2-(3-{[(2S)-3,3-dimethyl-1-(prop-2-enoyl)azetidin-2-yl]methoxy}pyridin-4-yl)-1H,5H,6H,7H-pyrrolo[3,2-c]pyridin-4-one]	–	–	–
> 1	C=CC(=O)N1CC[C@@]1(C)C#Cc1cnccc1-c1[nH]c2c(c1Nc1cccc(Cl)c1OC)C(=O)NCC2 [compound 550, 3-[(3-chloro-2-methoxyphenyl)amino]-2-(3-{2-[(2S)-2-methyl-1-(prop-2-enoyl)azetidin-2-yl]ethynyl}pyridin-4-yl)-1H,5H,6H,7H-pyrrolo[3,2-c]pyridin-4-one]	–	–	–
> 1	C=CC(=O)N1CC[C@]1(C)C#Cc1cnccc1-c1[nH]c2c(c1Nc1cccc(Cl)c1OC)C(=O)NCC2 [compound 551, 3-[(3-chloro-2-methoxyphenyl)amino]-2-(3-{2-[(2R)-2-methyl-1-(prop-2-enoyl)azetidin-2-yl]ethynyl}pyridin-4-yl)-1H,5H,6H,7H-pyrrolo[3,2-c]pyridin-4-one]	–	–	–
